Test results: PubChem BioAssay AID1919007 (Molecular Pharmacology Branch, DTP, NCI, 2023)

Tested on: A498 complex spheroids with HUVEC/MSC, growth
Test: Anticancer human tumor A498 cell line growth inhibition [AhR];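 further: seven day exposure starting three days after spheroid seeding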;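 on viability, T/C: luminescence signal used as a surrogate for viable cells; luminescence viability scaled so 100% equals DMSO vehicle wells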
Conditions: for IC50: curve of first compound; for viability, T/C: stronger effect = lower value
In short: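 Complex tumor spheroids co-cultured with HUVEC and human MSC stroma; AhR antagonists tested in combination with standard-of-care and investigational agents. Top concentration at or near clinical Cmax (else 10 microM), half-log dilutions; growth expressed as percent test/control.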

[1] = second compound 0.1 µM, first compound 0.0316 µM
[2] = second compound 0.1 µM, first compound 0.1 µM
[3] = second compound 0.1 µM, first compound 0.316 µM
[4] = second compound 0.1 µM, first compound 1 µM
[5] = second compound 0.1 µM, first compound 3.16 µM
[6] = second compound 0.1 µM, first compound 10 µM
[7] = second compound 0.316 µM, first compound 0.0316 µM
[8] = second compound 0.316 µM, first compound 0.1 µM
[9] = second compound 0.316 µM, first compound 0.316 µM
[10] = second compound 0.316 µM, first compound 1 µM
[11] = second compound 0.316 µM, first compound 3.16 µM
[12] = second compound 0.316 µM, first compound 10 µM
[13] = second compound 1 µM, first compound 0.0316 µM
[14] = second compound 1 µM, first compound 0.1 µM
[15] = second compound 1 µM, first compound 0.316 µM
[16] = second compound 1 µM, first compound 1 µM
[17] = second compound 1 µM, first compound 3.16 µM
[18] = second compound 1 µM, first compound 10 µM
[19] = second compound 3.16 µM, first compound 0.0316 µM
[20] = second compound 3.16 µM, first compound 0.1 µM
[21] = second compound 3.16 µM, first compound 0.316 µM
[22] = second compound 3.16 µM, first compound 1 µM
[23] = second compound 3.16 µM, first compound 3.16 µM
[24] = second compound 3.16 µM, first compound 10 µM
[25] = second compound 10 µM, first compound 0.0316 µM
[26] = second compound 10 µM, first compound 0.1 µM
[27] = second compound 10 µM, first compound 0.316 µM
[28] = second compound 10 µM, first compound 1 µM
[29] = second compound 10 µM, first compound 3.16 µM
[30] = second compound 10 µM, first compound 10 µM

| SMILES | IC50 (second compound 0.1 µM) [nM] | IC50 (second compound 0.316 µM) [nM] | IC50 (second compound 1 µM) [nM] | IC50 (second compound 3.16 µM) [nM] | IC50 (second compound 10 µM) [nM] | viability, T/C [1] [%] | viability, T/C [2] [%] | viability, T/C [3] [%] | viability, T/C [4] [%] | viability, T/C [5] [%] | viability, T/C [6] [%] | viability, T/C [7] [%] | viability, T/C [8] [%] | viability, T/C [9] [%] | viability, T/C [10] [%] | viability, T/C [11] [%] | viability, T/C [12] [%] | viability, T/C [13] [%] | viability, T/C [14] [%] | viability, T/C [15] [%] | other results |
| --- | --- | --- | --- | --- | --- | --- | --- | --- | --- | --- | --- | --- | --- | --- | --- | --- | --- | --- | --- | --- | --- |
| COc1cccc2c1C(=O)c1c(O)c3c(c(O)c1C2=O)CC(O)(C(=O)CO)CC3OC1CC(N)C(O)C(C)O1 (stereo not given) + CC(CO)NC(=O)c1cc(-c2ccc(Cl)cc2)nn(-c2cnn(C)c2)c1=O | 129 | 148 | 231 | 119 | < 31.6 | 55.1 | 55.6 | 37.6 | 16.1 | 2.16 | 0.7 | 55 | 53.3 | 43.3 | 16.4 | 2.65 | 0.83 | 56.1 | 56.2 | 47.7 | viability, T/C [16]: 20.4%; viability, T/C [17]: 4.74%; viability, T/C [18]: 2.49%; viability, T/C [19]: 52.6%; viability, T/C [20]: 49.8%; viability, T/C [21]: 44.1%; viability, T/C [22]: 11.3%; viability, T/C [23]: 3.01%; viability, T/C [24]: 1.69%; viability, T/C [25]: 46.6%; viability, T/C [26]: 38.5%; viability, T/C [27]: 31.9%; viability, T/C [28]: 1.3%; viability, T/C [29]: 2.75%; viability, T/C [30]: 0.83% |
| O=C(c1cc(Cc2n[nH]c(=O)c3ccccc23)ccc1F)N1CCN(C(=O)C2CC2)CC1 + Cc1ccccc1N=Nc1ccc(NC(=O)c2ccnn2C)c(C)c1 | > 10000 | > 10000 | > 10000 | > 10000 | > 10000 | 90.1 | 95.2 | 90.2 | 91.9 | 92.6 | 83.5 | 96.3 | 95.9 | 95.2 | 95.1 | 88.9 | 90.4 | 84.6 | 95.7 | 91.5 | viability, T/C [16]: 81%; viability, T/C [17]: 85.7%; viability, T/C [18]: 75.9%; viability, T/C [19]: 79.5%; viability, T/C [20]: 92.7%; viability, T/C [21]: 87.6%; viability, T/C [22]: 85.5%; viability, T/C [23]: 76.6%; viability, T/C [24]: 75.8%; viability, T/C [25]: 87.3%; viability, T/C [26]: 83.4%; viability, T/C [27]: 80.3%; viability, T/C [28]: 86.5%; viability, T/C [29]: 75.9%; viability, T/C [30]: 70.6% |
| CC1(C)CCC(CN2CCN(c3ccc(C(=O)NS(=O)(=O)c4ccc(NCC5CCOCC5)c([N+](=O)[O-])c4)c(Oc4cnc5[nH]ccc5c4)c3)CC2)=C(c2ccc(Cl)cc2)C1 + Cc1cncc(-c2nc(NCCc3c[nH]c4ccccc34)c3ncn(C(C)C)c3n2)c1 | 5370 | 5320 | 5030 | < 31.6 | < 31.6 | 88.5 | 90 | 85.3 | 78.6 | 72.3 | 26 | 89.2 | 92.2 | 95.1 | 78.3 | 71 | 26.6 | 84.7 | 90.3 | 87 | viability, T/C [16]: 73.5%; viability, T/C [17]: 66.9%; viability, T/C [18]: 28.3%; viability, T/C [19]: 43.6%; viability, T/C [20]: 43.4%; viability, T/C [21]: 48.5%; viability, T/C [22]: 40.9%; viability, T/C [23]: 39.6%; viability, T/C [24]: 24.5%; viability, T/C [25]: 2.24%; viability, T/C [26]: 2.27%; viability, T/C [27]: 3.12%; viability, T/C [28]: 4.57%; viability, T/C [29]: 3.12%; viability, T/C [30]: 5.62% |
